In brackets after ≈: the same amount, converted by molar mass.
Test system: not listed separately
Test: in vitro
Details: mouse, liver microsomes
With `COc1ccc2[nH]c([S+]([O-])Cc3ncc(C)c(OC)c3C)nc2c1` (centres unmarked) [Omeprazole] the microsomal CLint was 143 µL/min/mg.
Molecule `O=C(O)Cc1ccccc1Nc1c(Cl)cccc1Cl` [Diclofenac] has a microsomal CLint of 121 µL/min/mg.
With `COc1ccc2c(c1)[C@]13CCCC[C@@H]1[C@H](C2)N(C)CC3` [Dextromethorphan] the microsomal CLint was 179 µL/min/mg.

Test system: not listed separately
Test: in vitro
Details: mouse, plasma
With `CC(C)[N+](C)(CCOC(=O)C1c2ccccc2Oc2ccccc21)C(C)C` [Propantheline bromide] the half-life was 38.3 min.

Test system: S. aureus ATCC 29213
Test: microbe, parasite or virus in culture
Details: Staphylococcus aureus, ATCC29213, read-out: MIC (µg/mL)
Work on `CC(=O)NC(=S)NNC(=O)c1ccc(OC2CCCCC2)cc1` [1m] yielded an MIC of 1.56 µg/mL (≈ 4.65 µM).
In the case of `CCC1CCC(c2ccc(C(=O)NNC(=S)NC(C)=O)cc2)CC1` (centres unmarked) [1w, N-(2-(4-(4-ethylcyclohexyl)benzoyl)hydrazine-1-carbonothioyl)acetamide], the MIC is reported as 0.2 µg/mL (≈ 0.576 µM).
`CCCCCCOc1ccc(C(=O)NNC(=S)NC(C)=O)cc1` [1c, N-(2-(4-(n-hexoxy)benzoyl)hydrazine-1-carbonothioyl)acetamide] gave an MIC of 1.56 µg/mL (≈ 4.62 µM).
Molecule `CC(=O)NC(=S)NNC(=O)c1ccc(OCCCC(C)C)cc1` [1e] has an MIC of 3.12 µg/mL (≈ 9.25 µM).
Molecule `CCCCCOc1ccc(C(=O)NNC(=S)NC(C)=O)c(C)c1` [1k] has an MIC of 3.12 µg/mL (≈ 9.25 µM).
`CC(=O)NC(=S)NNC(=O)c1ccc(C2CCCCC2)cc1` [1v, N-(2-(4-cyclohexylbenzoyl)hydrazine-1-carbonothioyl)acetamide] showed an MIC of 0.39 µg/mL (≈ 1.22 µM).
In the case of `CC(=O)NC(=S)NNC(=O)c1ccc(C2CC2)cc1` [1u], the MIC is reported as 3.12 µg/mL (≈ 11.2 µM).
In the case of `CC(=O)NC(=S)NNC(=O)c1ccc(-c2ccccc2)cc1` [1r], the MIC is reported as 1.56 µg/mL (≈ 4.98 µM).
Work on `CCCCCOc1ccc(C(=O)NNC(=S)NC(C)=O)cc1O` [1i] yielded an MIC of 25 µg/mL (≈ 73.7 µM).
Work on `CC(=O)NC(=S)NNC(=O)c1ccc(O)c(O)c1` [1j] yielded an MIC of 100 µg/mL (≈ 371 µM).
Work on `CCCCCOc1ccc(C(=O)NNC(=S)NC(C)=O)cc1OCCCCC` [1h] yielded an MIC of 6.25 µg/mL (≈ 15.3 µM).
Work on `CCCOc1ccc(C(=O)NNC(=S)NC(C)=O)cc1` [B5] yielded an MIC of 6.25 µg/mL (≈ 21.2 µM).
With `CCCCCOc1ccc(CC(=O)NNC(=S)NC(C)=O)cc1` [1p] the MIC was 25 µg/mL (≈ 74.1 µM).
Work on `CCCCOc1ccc(C(=O)NNC(=S)NC(C)=O)cc1` [1a] yielded an MIC of 1.56 µg/mL (≈ 5.04 µM).
With `CCCCCCCCCCCOc1ccc(C(=O)NNC(=S)NC(C)=O)cc1` [1d] the MIC was 100 µg/mL (≈ 245 µM).
Work on `CCCCCOc1ccc(C(=O)NNC(=S)NC(C)=O)nc1` [1o] yielded an MIC of 25 µg/mL (≈ 77.1 µM).
With `CCCCCOc1ccc(CCC(=O)NNC(=S)NC(C)=O)cc1` [1q] the MIC was > 100 µg/mL.
`CC(=O)NC(=S)NNC(=O)c1cccc(-c2ccccc2)c1` [1s] gave an MIC of 3.12 µg/mL (≈ 9.96 µM).
With `CC(=O)NC(=S)NNC(=O)c1ccc(N2CCOCC2)cc1` [1x] the MIC was 100 µg/mL (≈ 310 µM).
For `CC(=O)NC(=S)NNC(=O)c1ccc(Oc2ccccc2)cc1` [1n], the MIC was 3.12 µg/mL (≈ 9.47 µM).
`CC(=O)NC(=S)NNC(=O)c1ccc2ccccc2c1` [1t] showed an MIC of 6.25 µg/mL (≈ 21.8 µM).
With `COCCCOc1ccc(C(=O)NNC(=S)NC(C)=O)cc1` [1f] the MIC was > 100 µg/mL.

Test system: not listed separately
Test: in vitro
Details: mouse, liver microsomes
Remark: another data set of the same source
With `COc1ccc2[nH]c([S+]([O-])Cc3ncc(C)c(OC)c3C)nc2c1` (centres unmarked) [Omeprazole] the half-life was 9.7 min.
In the case of `O=C(O)Cc1ccccc1Nc1c(Cl)cccc1Cl` [Diclofenac], the half-life is reported as 11.5 min.
For `COc1ccc2c(c1)[C@]13CCCC[C@@H]1[C@H](C2)N(C)CC3` [Dextromethorphan], the half-life was 7.7 min.
